Experimental data: PubChem BioAssay (NCI)
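Values below derive from 48-hour exposures of cells grown in 96-well plates, with endpoints linearly interpolated between the two concentrations bracketing the appropriate inhibition level. TGI: concentration producing complete growth inhibition.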

What was measured:
Experiment in all cases: NCI tumour cell line growth inhibition, 48 h
RXF-631 renal = system: RXF-631 renal
HCT-15 colon = system: HCT-15 colon
SK-MEL-5 melanoma = system: SK-MEL-5 melanoma
SF-539 CNS = system: SF-539 CNS
SK-MEL-2 melanoma = system: SK-MEL-2 melanoma
HOP-92 NSCLC = system: HOP-92 NSCLC
M19-MEL melanoma = system: M19-MEL melanoma
SK-OV-3 ovarian = system: SK-OV-3 ovarian
HOP-18 NSCLC = system: HOP-18 NSCLC
OVCAR-8 ovarian = system: OVCAR-8 ovarian
786-0 renal = system: 786-0 renal
SN12C renal = system: SN12C renal
UO-31 renal = system: UO-31 renal
HT29 colon = system: HT29 colon
SW-620 colon = system: SW-620 colon
HOP-62 NSCLC = system: HOP-62 NSCLC
A549 NSCLC = system: A549 NSCLC
SNB-19 CNS = system: SNB-19 CNS
OVCAR-5 ovarian = system: OVCAR-5 ovarian
SNB-75 CNS = system: SNB-75 CNS
CCRF-CEM leukemia = system: CCRF-CEM leukemia
NCI-H226 lung = system: NCI-H226 lung
DLD-1 colon = system: DLD-1 colon
SK-MEL-28 melanoma = system: SK-MEL-28 melanoma
U251 CNS = system: U251 CNS
ACHN renal = system: ACHN renal
LOX IMVI melanoma = system: LOX IMVI melanoma
HCC-2998 colon = system: HCC-2998 colon
OVCAR-3 ovarian = system: OVCAR-3 ovarian
SF-268 CNS = system: SF-268 CNS
DMS 114 small cell lung = system: DMS 114 small cell lung
RXF 393 renal = system: RXF 393 renal
HCT-116 colon = system: HCT-116 colon
M14 melanoma = system: M14 melanoma
NCI-H23 lung = system: NCI-H23 lung
DMS 273 small cell lung = system: DMS 273 small cell lung
OVCAR-4 ovarian = system: OVCAR-4 ovarian
K-562 leukemia = system: K-562 leukemia
SF-295 CNS = system: SF-295 CNS
EKVX NSCLC = system: EKVX NSCLC
UACC-257 melanoma = system: UACC-257 melanoma
NCI-H460 lung = system: NCI-H460 lung
TK-10 renal = system: TK-10 renal
SNB-78 CNS = system: SNB-78 CNS
HL-60(TB) leukemia = system: HL-60(TB) leukemia
UACC-62 melanoma = system: UACC-62 melanoma
COLO 205 colon = system: COLO 205 colon
MOLT-4 leukemia = system: MOLT-4 leukemia
A498 renal = system: A498 renal
CAKI-1 renal = system: CAKI-1 renal
KM12 colon = system: KM12 colon

## CN(C)CCNC(=O)c1cccc2nc3ccc4cccnc4c3nc12
RXF-631 renal
  TGI: 11800 nM
HCT-15 colon
  TGI: 2330 nM
SK-MEL-5 melanoma
  TGI: 1330 nM
SF-539 CNS
  TGI: 1100 nM
SK-MEL-2 melanoma
  TGI: 2110 nM
HOP-92 NSCLC
  TGI: 1990 nM
M19-MEL melanoma
  TGI: 1620 nM
SK-OV-3 ovarian
  TGI: 8530 nM
HOP-18 NSCLC
  TGI: 6660 nM
OVCAR-8 ovarian
  TGI: 7420 nM
786-0 renal
  TGI: 10900 nM
SN12C renal
  TGI: 4310 nM
UO-31 renal
  TGI: 2400 nM
HT29 colon
  TGI: 4880 nM
SW-620 colon
  TGI: 4920 nM
HOP-62 NSCLC
  TGI: 1860 nM
A549 NSCLC
  TGI: 9650 nM
SNB-19 CNS
  TGI: 6750 nM
OVCAR-5 ovarian
  TGI: 2670 nM
SNB-75 CNS
  TGI: 1840 nM
CCRF-CEM leukemia
  TGI: 13100 nM
NCI-H226 lung
  TGI: 1830 nM
DLD-1 colon
  TGI: 8360 nM
SK-MEL-28 melanoma
  TGI: 2280 nM
U251 CNS
  TGI: 4390 nM
ACHN renal
  TGI: 3270 nM
LOX IMVI melanoma
  TGI: 1510 nM
HCC-2998 colon
  TGI: 2120 nM
OVCAR-3 ovarian
  TGI: 4330 nM
SF-268 CNS
  TGI: 3130 nM
DMS 114 small cell lung
  TGI: 2120 nM
RXF 393 renal
  TGI: 1300 nM
HCT-116 colon
  TGI: 2430 nM
M14 melanoma
  TGI: 3030 nM
NCI-H23 lung
  TGI: 1350 nM
DMS 273 small cell lung
  TGI: 1400 nM
OVCAR-4 ovarian
  TGI: 3210 nM
K-562 leukemia
  TGI: 13400 nM
SF-295 CNS
  TGI: 3940 nM
EKVX NSCLC
  TGI: 2070 nM
UACC-257 melanoma
  TGI: 1630 nM
NCI-H460 lung
  TGI: 1010 nM
TK-10 renal
  TGI: 688 nM
SNB-78 CNS
  TGI: 11300 nM
HL-60(TB) leukemia
  TGI: 2910 nM
UACC-62 melanoma
  TGI: 1540 nM
COLO 205 colon
  TGI: 1550 nM
MOLT-4 leukemia
  TGI: 763 nM
A498 renal
  TGI: 845 nM
CAKI-1 renal
  TGI: 6370 nM
KM12 colon
  TGI: 3540 nM
